Measurements as given in ChEMBL document CHEMBL1773071, “Development of tricyclic hydroxy-1H-pyrrolopyridine-trione containing HIV-1 integrase inhibitors” (Bioorg Med Chem Lett, 2011).

How the values were obtained:
[1] = target: T1, Human immunodeficiency virus type 1 integrase (Human immunodeficiency virus 1, UniProt Q7ZJM1); assay: Inhibition of HIV1 recombinant integrase strand transfer activity expressed in Escherichia coli after 30 mins using [32P]-labeled oligonucleotide as a substrate by densitometric analysis
T1 sequence (Q7ZJM1 whole entry): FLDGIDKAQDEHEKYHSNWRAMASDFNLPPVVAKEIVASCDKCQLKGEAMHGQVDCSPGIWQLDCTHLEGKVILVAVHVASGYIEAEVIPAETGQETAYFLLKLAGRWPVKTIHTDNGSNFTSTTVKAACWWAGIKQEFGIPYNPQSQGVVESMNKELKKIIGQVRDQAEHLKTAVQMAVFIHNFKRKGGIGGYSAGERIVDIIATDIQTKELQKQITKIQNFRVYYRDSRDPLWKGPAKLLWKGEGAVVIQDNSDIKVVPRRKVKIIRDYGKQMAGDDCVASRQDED

[2] = target: T1, Human immunodeficiency virus type 1 integrase; assay: Inhibition of HIV1 recombinant integrase 3'-processing activity expressed in Escherichia coli after 30 mins using [32P]-labeled oligonucleotide as a substrate by densitometric analysis
[3] = tested on: Human immunodeficiency virus 1; assay: Resistant fold, ratio of EC50 for HIV1 harboring integrase Y143R mutant to EC50 for HIV1 harboring wild-type integrase; type: functional
[4] = tested on: Human immunodeficiency virus 1; assay: Antiviral activity against HIV1 harboring wild-type integrase infected in human HOS cells; type: functional, organism-based; conditions: Human immunodeficiency virus 1, HOS
[5] = tested on: Human immunodeficiency virus 1; assay: Resistant fold, ratio of EC50 for HIV1 harboring integrase G140S/Q148H mutant to EC50 for HIV1 harboring wild-type integrase; type: functional
[6] = target: T1, Human immunodeficiency virus type 1 integrase; assay: Inhibition of HIV1 recombinant integrase strand transfer activity expressed in Escherichia coli after 60 mins using [32P]-labeled oligonucleotide as a substrate by densitometric analysis in presence of cofactor magnesium
[7] = tested on: Human immunodeficiency virus 1; assay: Resistant fold, ratio of EC50 for HIV1 harboring integrase N155H mutant to EC50 for HIV1 harboring wild-type integrase; type: functional
[8] = target: T1, Human immunodeficiency virus type 1 integrase; assay: Inhibition of HIV1 recombinant integrase 3'-processing activity expressed in Escherichia coli after 60 mins using [32P]-labeled oligonucleotide as a substrate by densitometric analysis in presence of cofactor manganese
[9] = target: T1, Human immunodeficiency virus type 1 integrase; assay: Inhibition of HIV1 recombinant integrase strand transfer activity expressed in Escherichia coli after 60 mins using [32P]-labeled oligonucleotide as a substrate by densitometric analysis in presence of cofactor manganese
[10] = tested on: HOS; assay: Cytotoxicity against human HOS cells assessed as ATP level after 48 hrs by luciferase reporter assay; type: cell-based
[11] = target: T1, Human immunodeficiency virus type 1 integrase; assay: Inhibition of HIV1 recombinant integrase 3'-processing activity expressed in Escherichia coli after 60 mins using [32P]-labeled oligonucleotide as a substrate by densitometric analysis in presence of cofactor magnesium

Compound	IC50 [1]	IC50 [2]	also measured
O=C1c2c(c3n(c(=O)c2O)CCC3)C(=O)N1Cc1ccc(F)c(Cl)c1	10.9 µM	> 111 µM	
O=C1c2c(c3n(c(=O)c2O)CCCC3)C(=O)N1Cc1ccc(F)c(Cl)c1	9.1 µM	> 111 µM	Ratio EC50 [3]: 4; EC50 [4]: 61 µM; Ratio EC50 [5]: 2; IC50 [6]: 9.1 µM; Ratio EC50 [7]: 3; IC50 [8]: 28 µM; IC50 [9]: 1200 nM; CC50 [10]: 291 µM; IC50 [11]: > 111 µM
O=C1c2c(c3n(c(=O)c2O)CCCCC3)C(=O)N1Cc1ccc(F)c(Cl)c1	6 µM	> 111 µM	
O=C1c2c(c3n(c(=O)c2O)CCCCCC3)C(=O)N1Cc1ccc(F)c(Cl)c1	5.4 µM	> 111 µM	
O=C1c2c(c3n(c(=O)c2O)CCCCC3)C(=O)N1Cc1ccc(F)cc1	10.4 µM	> 111 µM	
O=C1c2c(c3n(c(=O)c2O)CCCCC3)C(=O)N1Cc1ccc(F)c(F)c1	6.01 µM	> 111 µM	
O=C1c2c(c3n(c(=O)c2O)CCCCC3)C(=O)N1Cc1cccc(Cl)c1F	9.2 µM	> 111 µM	
O=C1c2c(c3n(c(=O)c2O)CCCCC3)C(=O)N1Cc1ccccc1	> 111 µM	> 111 µM	
O=C1c2c(c3n(c(=O)c2O)CCCCC3)C(=O)N1Cc1cccc2ccccc12	90.5 µM	> 111 µM	
Cc1nnc(C(=O)NC(C)(C)c2nc(C(=O)NCc3ccc(F)cc3)c(O)c(=O)n2C)o1			EC50 [4]: 0.004 µM
O=C1c2ccc(O)c(O)c2C(=O)N1Cc1ccc(F)cc1	5.3 µM		
O=C1c2ccc(O)c(O)c2C(=O)N1Cc1cccc(Cl)c1F	1.7 µM		
O=C1c2ccc(O)c(O)c2C(=O)N1Cc1ccc(F)c(F)c1	0.14 µM		
